According to US20250381195A1, “Methods of Treating Diabetic Macular Edema” (UNM Rainforest Innovations, priority 2024, published 2025):
Counter-ions that a name gives are not always drawn.

Tested on: HRECs treated with VEGF (human retinal endothelial cells)
Assay: in vitro permeability / Electrical Cell-Substrate Impedance Sensing (ECIS) assay
Type: cell-based
Conditions: 50 ng/ml Rec. VEGF, compounds at 10 uM, resistance calculated at the end of 24 hrs
Procedure: The 250-um diameter gold electrode measures the ion current in the cell layer and measures the resistance and how the barrier function is altered with VEGF and drug treatment.
The inventors used the Prestwick chemical library compounds, which consists of a total of 1520 library compounds to check their effectiveness to decrease permeability in HRECs treated with VEGF (FIG. 4). […] The in vitro permeability or Electrical Cell-Substrate Impedance Sensing (ECIS) assay was carried out using Applied biophysics Z theta instrument, using 96W10idf PET plates. The HRECs were first seeded on the plates and the cells were allowed to grow until the desired resistance was achieved (800-1200V), this usually takes 15-18 hrs. After that the cells were treated with 50 ng/ml Rec. VEGF and the compounds at 10 uM concentration. At the end of 24 hrs, the resistance was calculated (an increase in resistance implies decreased permeability).

Row | Structure (SMILES) | resistance of EC layer (an increase in resistance implies decreased permeability)
1 | CNCCCC1c2ccccc2C=Cc2ccccc21 [Protriptyline HCl, protriptyline] | significant increase in resistance
2 | CN(C)CCN(Cc1cccs1)c1ccccn1 [Methapyrilene, methapyrilene] | increased resistance
3 | c1ccc2c(CC3=NCCN3)cccc2c1 [Naphazoline HCl, naphazoline] | increased resistance
4 | OC[C@H]1O[C@@H](c2ccc(Cl)c(Cc3ccc(O[C@H]4CCOC4)cc3)c2)[C@H](O)[C@@H](O)[C@@H]1O [Empaglifozin, empagliflozin] | significant increase in resistance
5 | CNCCCN1c2ccccc2CCc2ccccc21 [Desipramine HCl, desipramine] | significant increase in resistance
6 | Cc1ccc(N(CC2=NCCN2)c2cccc(O)c2)cc1 [Phentolamine, phentolamine] | increased resistance
7 | O=[N+]([O-])c1ccc(O)c2ncccc12 [Nitroxolone, nitroxolone] | significant increase in resistance
8 | CC(C(=O)O)c1ccc(C(=O)c2cccs2)cc1 (stereo not shown) [Suprofen, suprofen] | increased resistance
9 | N#Cc1ccc(Oc2ccc3c(c2)COB3O)cc1 [Crisaborole, crisaborole] | significant increase in resistance
10 | Cc1noc(NS(=O)(=O)c2ccc(N)cc2)c1C [Sulfisoxazole, sulfisoxazole] | increased resistance
